Columns and labels:
Type in all cases: in vivo
[1] = tested on: fall armyworm larvae (Spodoptera frugiperda); experiment: Spodoptera frugiperda spray test; conditions: 168 h, maize leaf sections, after 7 days
Procedure: Spodoptera frugiperda—Spray Test • Solvent: 78.0 parts by weight acetone • 1.5 parts by weight dimethylformamide • Emulsifier: alkylarylpolyglycol ether
(§1) To produce a suitable preparation of active compound, 1 part by weight of active compound is mixed with the stated amount of solvents and is diluted with water, containing an emulsifier concentration of 1000 ppm, to the desired concentration. Further test concentrations are prepared by dilution with emulsifier containing water.
Maize (Zea mays) leaf sections are sprayed with a preparation of the active ingredient of the desired concentration. Once dry, the leaf sections are infested with fall armyworm larvae (Spodoptera frugiperda).
After 7 days mortality in % is determined. 100% means all caterpillars have been killed and 0% means none of the caterpillars have been killed.

[2] = tested on: brown planthopper (Nilaparvata lugens); experiment: Nilaparvata lugens spray test; conditions: 96 h, rice plants, after 4 days
Procedure: Nilaparvata lugens—Spray Test • Solvent: 78.0 parts by weight of acetone • 1.5 parts by weight of dimethylformamide • Emulsifier: alkylarylpolyglycol ether
as §1
Rice plants (Oryza sativa) are sprayed with a preparation of the active ingredient of the desired concentration and the plants are infested with the brown planthopper (Nilaparvata lugens).
After 4 days mortality in % is determined. 100% means all planthoppers have been killed and 0% means none of the planthoppers have been killed.

[3] = tested on: larvae of the southern green stink bug (Nezara viridula); experiment: Nezara viridula spray test; conditions: 96 h, barley plants, after 4 days
Procedure: Nezara viridula—Spray Test • Solvent: 78.0 parts by weight of acetone • 1.5 parts by weight of dimethylformamide • Emulsifier: alkylarylpolyglycol ether
as §1, with “solvent,” for “solvents”, “and the concentrate” for “and”
Barley plants (Hordeum vulgare) are sprayed with a test solution containing the desired concentration of the active ingredient and are infested with larvae of the southern green stink bug (Nezara viridula).
After 4 days mortality in % is determined. 100% means all the stink bugs have been killed; 0% means none of the stink bugs have been killed.

[4] = tested on: larvae of the banded cucumber beetle (Diabrotica balteata); experiment: Diabrotica balteata spray test; conditions: 168 h, 100 g/ha (=32 μg/well), wheat seeds, after 7 days, read-out: efficacy (seedling growth)
Procedure: Diabrotica Balteata—Spray Test
• Solvent: 78.0 Parts by Weight of Acetone • 1.5 parts by weight of dimethylformamide • Emulsifier: Alkylarylpolyglycol Ether
as §1, with “solvent,” for “solvents”, “and the concentrate” for “and”
Soaked wheat seeds (Triticum aestivum) are placed in a multiple well plate filled with agar and some water and are incubated for 1 day to germinate (5 seeds per well). The germinated wheat seeds are sprayed with a test solution containing the desired concentration of the active ingredient. Afterwards each unit is infected with 10-20 larvae of the banded cucumber beetle (Diabrotica balteata).
After 7 days efficacy in % is determined. 100% means all the seedlings have grown up like in the untreated, uninfected control; 0% means none of the seedlings have grown.

[5] = tested on: green peach aphid (Myzus persicae); experiment: Myzus persicae oral test; conditions: 120 h, after 5 days
Procedure: Myzus persicae—Oral Test • Solvent: 100 parts by weight acetone
(§2) To produce a suitable preparation of active compound, 1 part by weight of active compound is mixed with the stated amount of solvent, and the concentrate is diluted with water to the desired concentration.
(§3) 50 μL compound solution is filled in microtiter plates and 150 μL IPL41 insect medium (33%+15% sugar) is added to obtain a total volume of 200 μL per well. Afterwards the plates are sealed with parafilm through which a mixed population of the green peach aphid (Myzus persicae) can suck on the compound preparation.
(§4) After 5 days mortality in % is determined. 100% means all aphids have been killed and 0% means none of the aphids have been killed.

[6] = tested on: adult mosquitoes Aedes aegypti strain MONHEIM; experiment: Aedes aegypti test (AEDSAE surface treatment & contact assay); conditions: 24 hours after contact, read-out: efficacy (mortality); for mortality at 4 mg/m2: surface concentration 4 mg/m^2, 30 minutes exposure; for mortality at 20 mg/m2: surface concentration 20 mg/m^2, 30 minutes exposure
Procedure: Aedes aegypti Test (AEDSAE Surface Treatment & Contact Assay) • Solvent: Aceton+2000 ppm rapeseed oil methyl ester (RME)
(§5) In order to produce a sufficient, active ingredient containing solution it is necessary to solve the test compound in the solvent-mix (acetone at 2 mg/ml/RME 2000 ppm). This solution is pipetted onto a glazed tile and after evaporation of the acetone, adult mosquitoes of the species Aedes aegypti strain MONHEIM are placed onto the dried surface. The exposure time is 30 minutes. Mortality in percent (%) is determined 24 hours after contact of the insects to the treated surface. 100% mortality means that all tested insects are dead, whereas 0% means that no insect died.

[7] = tested on: cotton aphid (Aphis gossypii); experiment: Aphis gossypii oral test; conditions: 120 h, after 5 days
Procedure: Aphis gossypii—Oral Test • Solvent: 100 Parts by Weight Acetone
as §2
as §3, with “cotton” for “green peach”, “(Aphis gossypii)” for “(Myzus persicae)”
as §4

[8] = tested on: green peach aphid (Myzus persicae); experiment: Myzus persicae spray test; conditions: foliar, 120 h, Chinese cabbage leaf disks, after 5 days
Procedure: Myzus persicae—Spray Test • Solvent: 78.0 parts by weight acetone • 1.5 parts by weight dimethylformamide • Emulsifier: alkylarylpolyglycol ether
as §1
Chinese cabbage (Brassica pekinensis) leaf disks infected with all instars of the green peach aphid (Myzus persicae), are sprayed with a preparation of the active ingredient of the desired concentration.
as §4

[9] = tested on: cattle tick larvae (Rhipicephalus microplus); experiment: Rhipicephalus (Boophilus) microplus in-vitro contact test, larval cattle tick (strain Parkhurst, resistant against synthetic pyrethroids); conditions: after 48 hours, read-out: efficacy (larvae dead or moribund); for pest or weed control at 1 µg/cm2, 100 g/ha: 1 μg/cm^2 (=100 g/ha)
Procedure: Rhipicephalus (Boophilus) Microplus—In-Vitro Contact Tests Larval Cattle Tick (Strain Parkhurst, Resistant Against Synthetic Pyrethroids)
(§6) 9 mg compound is solved in 1 mL acetone and diluted with acetone to the desired concentration. 250 μL of the test solution is filled in 25 mL glass test tubes and homogeneously distributed on the inner walls by rotation and tilting on a shaking device (2 h at 30 rpm). With a compound concentration of 900 ppm, an inner surface of 44.7 cm^2 and a homogeneous distribution, a dose of 5 μg/cm^2 is achieved.
After the solvent has evaporated, each test tube is filled with 20-50 cattle tick larvae (Rhipicephalus microplus), closed with a perforated lid and incubated in a horizontal position at 85% relative humidity and 27° C. in an incubator. After 48 hours efficacy is determined. The larvae are patted on the ground of the tubes and negative geotactic behavior is recorded.
An efficacy of 100% means all larvae are dead or moribund; 0% means no larvae are dead or moribund.

[10] = tested on: adult flies Musca domestica strain WHO-N; experiment: Musca domestica test (MUSCDO surface treatment & contact assay); conditions: 24 hours after contact, read-out: efficacy (mortality); for mortality at 20 mg/m2: surface concentration 20 mg/m^2, 30 minutes exposure; for mortality at 4 mg/m2: surface concentration 4 mg/m^2, 30 minutes exposure
Procedure: Musca domestica Test (MUSCDO Surface Treatment & Contact Assay) • Solvent: Aceton+2000 ppm rapeseed oil methyl ester (RME)
as §5, with “flies” for “mosquitoes”, “Musca domestica” for “Aedes aegypti”, “WHO-N” for “MONHEIM”

[11] = tested on: adult mosquitoes Culex quinquefasciatus strain P00; experiment: Culex quinquefasciatus test (CULXFA surface treatment & contact assay); conditions: surface concentration 20 mg/m^2, 30 minutes exposure, 24 hours after contact, read-out: efficacy (mortality)
Procedure: Culex quinquefasciatus Test (CULXFA Surface Treatment & Contact Assay) • Solvent: Aceton+2000 ppm rapeseed oil methyl ester (RME)
as §5, with “2,000” for “2000”, “Culex quinquefasciatus” for “Aedes aegypti”, “P00” for “MONHEIM”

[12] = tested on: adult brown dog ticks (Rhipicephalus sanguineus); experiment: Rhipicephalus sanguineus in-vitro contact test with adult brown dog ticks; conditions: 1 μg/cm^2 (=100 g/ha), after 48 hours
Procedure: Rhipicephalus sanguineus—In-Vitro Contact Tests with Adult Brown Dog Ticks
as §6
After the solvent has evaporated, each test tube is filled with 5-10 adult brown dog ticks (Rhipicephalus sanguineus), closed with a perforated lid and incubated in a lying position at room temperature and relative humidity. After 48 hours efficacy is determined. The ticks are patted on the ground of the tubes and are incubated on a heating plate at 45-50° C. for at most 5 minutes. Immotile or uncoordinated moving ticks, which are not able to escape the heat by climbing upwards, are marked as dead or moribund.
An efficacy of 100% means all ticks are dead or moribund; 0% means no ticks are dead or moribund.

[13] = tested on: adult engorged female ticks (Rhipicephalus microplus); experiment: Rhipicephalus (Boophilus) microplus injection test; conditions: 4 μg/tick, egg deposition after 7 days
Procedure: Rhipicephalus (Boophilus) Microplus—Injection Test
• Solvent: Dimethyl Sulfoxide
To produce a suitable preparation of active compound, 10 mg of active compound are dissolved in 0.5 mL solvent, and the concentrate is diluted with solvent to the desired concentration.
Five adult engorged female ticks (Rhipicephalus microplus) are injected with 1 μL compound solution into the abdomen. The ticks are transferred into replica plates and incubated in a climate chamber.
After 7 days egg deposition of fertile eggs is monitored. Eggs where fertility is not visible are stored in a climate chamber till hatching after about 42 days. An efficacy of 100% means all eggs are infertile; 0% means all eggs are fertile.

SMILES | mortality at 100 g/ha [1] [%] | mortality at 500 g/ha [2] [%] | pest or weed control at 32 µg/disc, 100 g/ha [4] [%] | mortality at 4 mg/m2 [6] [%] | pest or weed control at 1 µg/cm2, 100 g/ha [9] [%] | mortality at 20 mg/m2 [10] [%] | mortality at 20 mg/m2 [6] [%] | mortality at 100 g/ha [8] [%] | efficacy (ticks dead or moribund) [12] [%] | other results
C[C@H](NC(=O)c1cc(OC(F)(F)F)cc(S(C)(=O)=O)c1)c1nc2cccnc2n1-c1ccc(C#N)cn1 [Example I-4] | 100 | 90 | 100 | 80 to 100 | – | – | – | – | – | mortality at 500 g/ha [3]: 100%; mortality at 20 ppm [5]: 100%; mortality at 100 ppm [7]: 100%
CC(NC(=O)c1cc(OC(F)(F)F)cc(OC(F)(F)F)c1)c1nc2cccnc2n1-c1ccc(Cl)cn1 (stereo not drawn) [Example I-9] | 100 | – | 100 | – | 80 | 80 to 100 | – | – | – | mortality at 500 g/ha ([8]; 500 g/ha): 90%; mortality at 20 ppm [5]: 100%; mortality at 100 ppm [7]: 100%
CC(NC(=O)c1cc(OC(F)F)cc(OC(F)F)c1)c1nc2cccnc2n1-c1ccc(C#N)cn1 (stereo not drawn) [Example I-40] | 100 | 90 | 100 | 80 to 100 | – | 80 to 100 | 80 to 100 | – | – | mortality at 4 mg/m2 [10]: 80 to 100%
CC(NC(=O)c1cc(C(F)(F)F)cc(C(F)(F)F)c1)c1nc2cccnc2n1-c1ccc(C(=O)N(C)C)cn1 (stereo not drawn) [Example I-26, 6-(2-{1-[3,5-bis(trifluoromethyl)benzamido]ethyl}-3H-imidazo[4,5-b]pyridin-3-yl)-N,N-dimethylnicotinamide] | – | 100 | – | – | – | – | 80 to 100 | 90 | – | –
CC(NC(=O)c1cc(C(F)(F)F)cc(C(F)(F)F)c1)c1nc2cccnc2n1-c1ccc(C#N)cn1 (stereo not drawn) [Example I-35] | 100 | – | 100 | 80 to 100 | – | 80 to 100 | 80 to 100 | 100 | – | mortality at 20 mg/m2 [11]: 80 to 100%; mortality at 4 mg/m2 [10]: 80 to 100%
CC(NC(=O)c1cc(C(F)(F)F)cc(C(F)(F)F)c1)c1nc2cccnc2n1-c1ccc(Cl)cn1 (stereo not drawn) [Example I-8] | 100 | – | 100 | – | 100 | 80 to 100 | 80 to 100 | – | 80 | –
CC(NC(=O)c1cc(OC(F)(F)F)cc(C2CC2)c1)c1nc2cccnc2n1-c1ccc(Cl)cn1 (stereo not drawn) [Example I-13] | – | – | – | – | 90 | – | – | – | 80 | –
C[C@H](NC(=O)c1cc(C(F)F)n(C)n1)c1nc2cccnc2n1-c1ccc(C#N)cn1 [Example I-17] | – | – | – | – | – | – | – | – | 100 | –
C[C@H](NC(=O)c1cc(C#N)cc(C2(C#N)CC2)c1)c1nc2cccnc2n1-c1ccc(C#N)cn1 [Example I-6] | 100 | – | – | 80 to 100 | 90 | – | – | 90 | – | –
C[C@H](NC(=O)c1cc(OC(F)(F)F)cc(C2CC2)c1)c1nc2cccnc2n1-c1ccc(C#N)cn1 [Example I-2] | 100 | – | – | – | 100 | 80 to 100 | 80 to 100 | – | – | efficacy (infertile eggs) [13]: 100%; pest or weed control at 5 µg/cm2, 500 g/ha ([9]; 5 μg/cm^2 (=500 g/ha)): 100%
